Structures are written as SMILES. Calls of active or inactive are those of the source. No rule for the calls is given here.

Results on nine compounds are retold here after PubChem BioAssay AID1259407 (Chemical Carcinogenesis Research Information System (CCRIS), 2018).

The data set concerns CCRIS mutagenicity, Ames/micronucleus/aberration tests. The data set can be described thus: CCRIS mutagenicity studies.
The mark [1] stands for this setting: Test System: AMES SALMONELLA TYPHIMURIUM, Strain/Indicator: TA98, Metabolic Activation: NONE, Method: STANDARD PLATE.
Setting [2] is: Test System: AMES SALMONELLA TYPHIMURIUM, Strain/Indicator: TA100, Metabolic Activation: NONE, Method: STANDARD PLATE.
The mark [3] stands for this setting: Test System: AMES SALMONELLA TYPHIMURIUM, Strain/Indicator: TA98, Metabolic Activation: NONE, Method: PREINCUBATION
Where [4] appears, read: Test System: AMES SALMONELLA TYPHIMURIUM, Strain/Indicator: TA98, Metabolic Activation: RAT, LIVER, S-9, AROCLOR 1254 (10%), Method: PREINCUBATION
Setting [5] is: Test System: AMES SALMONELLA TYPHIMURIUM, Strain/Indicator: TA100, Metabolic Activation: NONE, Method: PREINCUBATION
Setting [6] is: Test System: AMES SALMONELLA TYPHIMURIUM, Strain/Indicator: TA100, Metabolic Activation: RAT, LIVER, S-9, AROCLOR 1254 (10%), Method: PREINCUBATION
Where [7] appears, read: Test System: AMES SALMONELLA TYPHIMURIUM, Strain/Indicator: TA1535, Metabolic Activation: HAMSTER, LIVER, S-9, AROCLOR 1254 (10%), Method: PREINCUBATION
Where [8] appears, read: Test System: AMES SALMONELLA TYPHIMURIUM, Strain/Indicator: TA1535, Metabolic Activation: NONE, Method: PREINCUBATION
The mark [9] stands for this setting: Test System: AMES SALMONELLA TYPHIMURIUM, Strain/Indicator: TA1535, Metabolic Activation: RAT, LIVER, S-9, AROCLOR 1254 (10%), Method: PREINCUBATION
Where [10] appears, read: Test System: AMES SALMONELLA TYPHIMURIUM, Strain/Indicator: TA1537, Metabolic Activation: HAMSTER, LIVER, S-9, AROCLOR 1254 (10%), Method: PREINCUBATION
Setting [11] is: Test System: AMES SALMONELLA TYPHIMURIUM, Strain/Indicator: TA1537, Metabolic Activation: NONE, Method: PREINCUBATION

In the case of `CNC(=O)N(O)C(C)=O`, the mutagenic call by setting is: under setting [1], “active; positive”; (Test System: AMES SALMONELLA TYPHIMURIUM, Strain/Indicator: TA98, Metabolic Activation: RAT, LIVER, S-9, Method: STANDARD PLATE) “active; positive”; under setting [2], “active; positive”.

For `CCCCCCCCCCCC(=O)O`, the mutagenic call (Test System: AMES SALMONELLA TYPHIMURIUM, Strain/Indicator: TA97, Metabolic Activation: HAMSTER, LIVER, S-9, AROCLOR 1254 (10%), Method: PREINCUBATION) was “inactive; negative”; the mutagenic call (Test System: AMES SALMONELLA TYPHIMURIUM, Strain/Indicator: TA97, Metabolic Activation: HAMSTER, LIVER, S-9, AROCLOR 1254 (30%), Method: PREINCUBATION) is “inactive; negative”; the mutagenic call (Test System: AMES SALMONELLA TYPHIMURIUM, Strain/Indicator: TA97, Metabolic Activation: NONE, Method: PREINCUBATION) was “inactive; negative”; the mutagenic call (Test System: AMES SALMONELLA TYPHIMURIUM, Strain/Indicator: TA97, Metabolic Activation: RAT, LIVER, S-9, AROCLOR 1254 (10%), Method: PREINCUBATION) is “inactive; negative”; the mutagenic call (Test System: AMES SALMONELLA TYPHIMURIUM, Strain/Indicator: TA97, Metabolic Activation: RAT, LIVER, S-9, AROCLOR 1254 (30%), Method: PREINCUBATION) was “inactive; negative”; the mutagenic call (Test System: AMES SALMONELLA TYPHIMURIUM, Strain/Indicator: TA98, Metabolic Activation: HAMSTER, LIVER, S-9, AROCLOR 1254 (10 OR 30%), Method: PREINCUBATION) was “inactive; negative”. In addition, the mutagenic call reads like this: under setting [3], “inactive; negative”; under setting [4], “inactive; negative”; (Test System: AMES SALMONELLA TYPHIMURIUM, Strain/Indicator: TA98, Metabolic Activation: RAT, LIVER, S-9, AROCLOR 1254 (30%), Method: PREINCUBATION) “inactive; negative”; (Test System: AMES SALMONELLA TYPHIMURIUM, Strain/Indicator: TA100, Metabolic Activation: HAMSTER, LIVER, S-9, AROCLOR 1254 (10 OR 30%), Method: PREINCUBATION) “inactive; negative”; under setting [5], “inactive; negative”; under setting [6], “inactive; negative”. Also, the mutagenic call (Test System: AMES SALMONELLA TYPHIMURIUM, Strain/Indicator: TA100, Metabolic Activation: RAT, LIVER, S-9, AROCLOR 1254 (30%), Method: PREINCUBATION) was “inactive; negative”; the mutagenic call under setting [7] was “inactive; negative”; the mutagenic call (Test System: AMES SALMONELLA TYPHIMURIUM, Strain/Indicator: TA1535, Metabolic Activation: HAMSTER, LIVER, S-9, AROCLOR 1254 (30%), Method: PREINCUBATION) was “inactive; negative”; the mutagenic call under setting [8] is “inactive; negative”; the mutagenic call under setting [9] was “inactive; negative”; the mutagenic call (Test System: AMES SALMONELLA TYPHIMURIUM, Strain/Indicator: TA1535, Metabolic Activation: RAT, LIVER, S-9, AROCLOR 1254 (30%), Method: PREINCUBATION) was “inactive; negative”. Also, the mutagenic call by setting is: under setting [10], “inactive; negative”; (Test System: AMES SALMONELLA TYPHIMURIUM, Strain/Indicator: TA1537, Metabolic Activation: HAMSTER, LIVER, S-9, AROCLOR 1254 (30%), Method: PREINCUBATION) “inactive; negative”; under setting [11], “inactive; negative”; (Test System: AMES SALMONELLA TYPHIMURIUM, Strain/Indicator: TA1537, Metabolic Activation: RAT, LIVER, S-9, AROCLOR 1254 (30%), Method: PREINCUBATION) “inactive; negative”.

As for `CCCNCCC`, the mutagenic call was “inactive; negative” (Test System: AMES SALMONELLA TYPHIMURIUM, Strain/Indicator: TA98, Metabolic Activation: HAMSTER, LIVER, S-9, AROCLOR 1254 (10%), Method: PREINCUBATION); “inactive; negative” under setting [3]; “inactive; negative” under setting [4]; “inactive; negative” (Test System: AMES SALMONELLA TYPHIMURIUM, Strain/Indicator: TA100, Metabolic Activation: HAMSTER, LIVER, S-9, AROCLOR 1254 (10%), Method: PREINCUBATION); “inactive; negative” under setting [5]; “inactive; negative” under setting [6]. Further, the mutagenic call runs as follows: under setting [7], “inactive; negative”; under setting [8], “inactive; negative”; under setting [9], “inactive; negative”; under setting [10], “inactive; negative”; under setting [11], “inactive; negative”; (Test System: AMES SALMONELLA TYPHIMURIUM, Strain/Indicator: TA1537, Metabolic Activation: RAT, LIVER, S-9, AROCLOR 1254 (10%), Method: PREINCUBATION) “inactive; negative”.

Consider `O=C1OCC(C(Br)Br)=C1Br`, for which the mutagenic call under setting [2] is “active; positive”.

In the case of `NC(=S)NNC(N)=S`, under “End Point: IN VITRO CHROMOSOMAL ABERRATIONS, Test System: CHINESE HAMSTER OVARY CELLS, Metabolic Activation: RAT, LIVER, S-9, AROCLOR 1254”, the mutagenic call is “inactive; negative”.

In the case of `COCCN(N=O)C(N)=O`, the mutagenic call is “active; positive” (Test System: E. COLI B, Strain/Indicator: H/R30R, Metabolic Activation: NONE) and “active; positive” (Test System: E. COLI B, Strain/Indicator: HS30R, Metabolic Activation: NONE).

Take `Clc1cccnc1`: the mutagenic call is, setting by setting: (Test System: AMES SALMONELLA TYPHIMURIUM, Strain/Indicator: TA97, Metabolic Activation: NONE, Method: STANDARD PLATE) “inactive; negative”; (Test System: AMES SALMONELLA TYPHIMURIUM, Strain/Indicator: TA97, Metabolic Activation: RAT, LIVER, S-9, AROCLOR 1254, Method: STANDARD PLATE) “inactive; negative”; under setting [1], “inactive; negative”; (Test System: AMES SALMONELLA TYPHIMURIUM, Strain/Indicator: TA98, Metabolic Activation: RAT, LIVER, S-9, AROCLOR 1254, Method: STANDARD PLATE) “inactive; negative”; under setting [2], “inactive; negative”; (Test System: AMES SALMONELLA TYPHIMURIUM, Strain/Indicator: TA100, Metabolic Activation: RAT, LIVER, S-9, AROCLOR 1254, Method: STANDARD PLATE) “inactive; negative”. Besides, the mutagenic call (Test System: AMES SALMONELLA TYPHIMURIUM, Strain/Indicator: TA102, Metabolic Activation: NONE, Method: STANDARD PLATE) is “inactive; negative”; the mutagenic call (Test System: AMES SALMONELLA TYPHIMURIUM, Strain/Indicator: TA102, Metabolic Activation: RAT, LIVER, S-9, AROCLOR 1254, Method: STANDARD PLATE) was “inactive; negative”; the mutagenic call (Test System: MOUSE LYMPHOMA, Strain/Indicator: L5178Y (TK+/TK-), Metabolic Activation: NONE) is “active; positive”; the mutagenic call (Test System: MOUSE LYMPHOMA, Strain/Indicator: L5178Y (TK+/TK-), Metabolic Activation: RAT, LIVER, S-9, AROCLOR 1254) was “active; positive”.

As for `O=Cc1ccc(COS(=O)(=O)O)o1`, the mutagenic call was “inactive; negative” under setting [1]; “active; positive” under setting [2]; “active; positive” (Test System: AMES SALMONELLA TYPHIMURIUM, Strain/Indicator: TA104, Metabolic Activation: NONE, Method: PREINCUBATION).

Take `O=c1nc(NO)ccn1[C@@H]1O[C@H](CO)[C@@H](O)[C@H]1O`: the mutagenic call is, setting by setting: (Test System: E. COLI, Strain/Indicator: WP2, Metabolic Activation: NONE, Method: STANDARD PLATE) “active; positive”; (Test System: E. COLI, Strain/Indicator: WP2 UVRA, Metabolic Activation: NONE, Method: STANDARD PLATE) “active; positive”.
